pEC50, pIC50: −log10 of the molar value.
Legend:
[1] = biological target: T1, DGKα (hDGKalpha(1-735)-N-His) (Homo sapiens, UniProt P23743); assay: In vitro DGK inhibition assay, DGKalpha ADP Glo (in house); format: biochemical; details: 4 nM DGKα, 25 μM ATP, 125 uM DLG in liposomes, 1 hour reaction
T1 construct: hDGKalpha(1-735)-N-His; His (N); made in house; host or cells: Sf21 insect cells (baculovirus)
Method in brief: (§1)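 ADP-Glo luminescence measured ADP formed over 1 h by Sf21-expressed full-length human enzymes: DGKα at 4 nM with 25 µM ATP, DGKζ at 2 nM with 50 µM ATP, both on 125 µM DLG in PS/PC liposomes. Dose–response used 11 threefold dilutions at 2% final DMSO.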

[2] = biological target: T2, DGKζ (hDGKzeta(1-928)-N-His) (Homo sapiens, UniProt Q13574); assay: In vitro DGK inhibition assay, DGKzeta ADP Glo (in house); format: biochemical; details: 2 nM DGKζ, 50 μM ATP, 125 uM DLG in liposomes, 1 hour reaction
T2 construct: hDGKzeta(1-928)-N-His; His (N); made in house; host or cells: Sf21 insect cells (baculovirus)
T2 sequence (Q13574 whole entry): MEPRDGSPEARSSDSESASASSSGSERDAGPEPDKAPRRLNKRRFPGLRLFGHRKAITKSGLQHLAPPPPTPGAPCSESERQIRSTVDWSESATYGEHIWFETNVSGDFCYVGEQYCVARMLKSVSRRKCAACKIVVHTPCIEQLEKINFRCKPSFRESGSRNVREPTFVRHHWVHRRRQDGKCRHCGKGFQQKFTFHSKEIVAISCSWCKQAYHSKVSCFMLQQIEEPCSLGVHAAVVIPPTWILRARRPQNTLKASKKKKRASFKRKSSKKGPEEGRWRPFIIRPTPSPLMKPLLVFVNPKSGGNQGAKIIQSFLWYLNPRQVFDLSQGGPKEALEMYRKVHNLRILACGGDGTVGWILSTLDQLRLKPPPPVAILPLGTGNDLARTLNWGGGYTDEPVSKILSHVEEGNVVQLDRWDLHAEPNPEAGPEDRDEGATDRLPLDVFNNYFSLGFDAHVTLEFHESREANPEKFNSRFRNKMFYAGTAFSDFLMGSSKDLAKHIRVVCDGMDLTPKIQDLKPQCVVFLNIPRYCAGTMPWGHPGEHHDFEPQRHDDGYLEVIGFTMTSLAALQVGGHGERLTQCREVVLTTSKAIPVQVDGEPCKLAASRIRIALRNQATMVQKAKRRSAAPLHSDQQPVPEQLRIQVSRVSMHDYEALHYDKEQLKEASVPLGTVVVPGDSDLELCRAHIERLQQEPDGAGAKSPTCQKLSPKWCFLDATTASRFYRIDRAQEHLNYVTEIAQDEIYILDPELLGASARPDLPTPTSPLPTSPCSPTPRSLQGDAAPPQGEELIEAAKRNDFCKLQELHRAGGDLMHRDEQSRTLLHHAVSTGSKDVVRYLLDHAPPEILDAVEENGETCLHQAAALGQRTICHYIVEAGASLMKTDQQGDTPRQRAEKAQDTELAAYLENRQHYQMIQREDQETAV
Method in brief: as §1

primary human T-cells = assay: IL2 secretion measurements (24 h, CD3-stimulated T-cells, PBS counter screen); format: cell-based; details: for Emax IL2 (% activation): CD3 condition, normalised to DMSO (neutral) and 20 μM reference compound A1 = 100%; for pEC50: Homo sapiens, T-cell, CD3-stimulated primary human T-cells, IL2 secretion, fitted sigmoidal curve, read-out: Tcell IL2 CD3 EC50
Method in brief: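 IL-2 secretion was measured by ProQuantum or ELISA after 24 h culture of expanded human T-cells with compound, on CD3-antibody-coated plates or PBS counter-screen plates. Dosing used 5–6 points from a 20 or 10 μM final top at 3.333-fold steps in 0.2% DMSO. EC50/Emax were scaled between DMSO and 20 μM reference A1.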

T1 sequence (P23743 whole entry): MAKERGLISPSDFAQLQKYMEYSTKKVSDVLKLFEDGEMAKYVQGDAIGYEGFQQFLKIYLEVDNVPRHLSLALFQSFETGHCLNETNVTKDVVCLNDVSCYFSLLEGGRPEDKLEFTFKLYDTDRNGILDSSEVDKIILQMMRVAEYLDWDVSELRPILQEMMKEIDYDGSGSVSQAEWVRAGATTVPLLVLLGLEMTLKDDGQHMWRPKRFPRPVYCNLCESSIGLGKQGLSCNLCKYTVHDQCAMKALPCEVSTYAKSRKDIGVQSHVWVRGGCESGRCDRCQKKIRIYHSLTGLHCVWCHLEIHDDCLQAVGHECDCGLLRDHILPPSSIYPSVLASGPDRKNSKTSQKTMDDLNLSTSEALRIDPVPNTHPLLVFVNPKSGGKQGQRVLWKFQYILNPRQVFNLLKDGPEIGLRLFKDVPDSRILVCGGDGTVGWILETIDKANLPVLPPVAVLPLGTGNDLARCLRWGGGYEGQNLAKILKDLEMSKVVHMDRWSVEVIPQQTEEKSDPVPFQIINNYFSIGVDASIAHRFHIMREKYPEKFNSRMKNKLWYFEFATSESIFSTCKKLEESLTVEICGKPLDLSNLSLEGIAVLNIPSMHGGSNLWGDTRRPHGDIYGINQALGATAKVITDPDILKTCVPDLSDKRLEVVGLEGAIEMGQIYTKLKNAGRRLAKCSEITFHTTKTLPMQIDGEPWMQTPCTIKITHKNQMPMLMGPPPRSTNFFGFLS

pIC50 [1]	pIC50 [2]	SMILES	Emax IL2 (% activation) (primary human T-cells)	pEC50 (primary human T-cells)
5.76	6.55	N#CC1(c2nc(-c3cc4c(cc3F)S(=O)(=O)C[C@H](N)C(=O)N4Cc3ccc(-c4noc(C(F)(F)F)n4)cc3)no2)CC1 [Example 16, 1-[3-[(3R)-3-amino-8-fluoro-1,1,4-trioxo-5-[[4-[5-(trifluoromethyl)-1,2,4-oxadiazol-3-yl]phenyl]methyl]-2,3-dihydro-1λ^6,5-benzothiazepin-7-yl]-1,2,4-oxadiazol-5-yl]cyclopropanecarbonitrile]	315 % activation	6.43
5.49	6.33	N#CC1(c2nc(-c3cc4c(cc3F)S(=O)(=O)C[C@H](N)C(=O)N4Cc3ccc(-c4ccc(C(F)(F)F)cn4)cc3)no2)CC1 [Example 17]	221 % activation	5.81
5.41	6.82	N[C@H]1CS(=O)(=O)c2cc(F)c(-c3noc(C4(CO)CCCO4)n3)cc2N(Cc2ccc(-c3noc(C(F)(F)F)n3)cc2)C1=O (stereo partly drawn) [Example 18, (3R)-3-amino-8-fluoro-7-[5-[2-(hydroxymethyl)tetrahydrofuran-2-yl]-1,2,4-oxadiazol-3-yl]-1,1-dioxo-5-[[4-[5-(trifluoromethyl)-1,2,4-oxadiazol-3-yl]phenyl]methyl]-2,3-dihydro-1λ^6,5-benzothiazepin-4-one]	529 % activation	6.07
4.74	6.11	CC(C)(C)c1nnc(-c2ccc(CN3C(=O)[C@@H](N)CS(=O)(=O)c4ccc(-c5nnc(C(C)(C)C)o5)cc43)cc2)o1 [Example 19, (3R)-3-amino-7-(5-tert-butyl-1,3,4-oxadiazol-2-yl)-5-[[4-(5-tert-butyl-1,3,4-oxadiazol-2-yl)phenyl]methyl]-1,1-dioxo-2,3-dihydro-1λ^6,5-benzothiazepin-4-one]	40 % activation	< 5.00
5.73	5.96	Cc1cc(C)n(-c2ccc(CN3C(=O)[C@@H](N)CS(=O)(=O)c4ccc(-c5nnc(C(C)(C)C)o5)cc43)cc2)n1 [Example 22, (3R)-3-amino-7-(5-tert-butyl-1,3,4-oxadiazol-2-yl)-5-[[4-(3,5-dimethylpyrazol-1-yl)phenyl]methyl]-1,1-dioxo-2,3-dihydro-1λ^6,5-benzothiazepin-4-one]	75 % activation	5.34
5.01	5.84	CC(C)(C)c1nnc(-c2ccc3c(c2)N(Cc2ccc(-c4nnc(C(F)(F)F)o4)cc2)C(=O)[C@@H](N)CS3(=O)=O)o1 [Example 24, (3R)-3-amino-7-(5-tert-butyl-1,3,4-oxadiazol-2-yl)-1,1-dioxo-5-[[4-[5-(trifluoromethyl)-1,3,4-oxadiazol-2-yl]phenyl]methyl]-2,3-dihydro-1λ^6,5-benzothiazepin-4-one]	131 % activation	5.98
4.41	5.76	CC(N)(c1nnc(-c2ccc3c(c2)N(Cc2ccc(-c4noc(C(F)(F)F)n4)cc2)C(=O)[C@@H](N)CS3(=O)=O)o1)C(F)(F)F (stereo partly drawn) [Example 32, (3R)-3-amino-7-[5-(1-amino-2,2,2-trifluoro-1-methyl-ethyl)-1,3,4-oxadiazol-2-yl]-1,1-dioxo-5-[[4-[5-(trifluoromethyl)-1,2,4-oxadiazol-3-yl]phenyl]methyl]-2,3-dihydro-1λ^6,5-benzothiazepin-4-one]	321 % activation	5.72
4.91	5.78	CC(C)(C)C(N)c1nnc(-c2ccc3c(c2)N(Cc2ccc(-c4noc(C(F)(F)F)n4)cc2)C(=O)[C@@H](N)CS3(=O)=O)o1 (stereo partly drawn) [Example 34, (3R)-3-amino-7-[5-(1-amino-2,2-dimethyl-propyl)-1,3,4-oxadiazol-2-yl]-1,1-dioxo-5-[[4-[5-(trifluoromethyl)-1,2,4-oxadiazol-3-yl]phenyl]methyl]-2,3-dihydro-1λ^6,5-benzothiazepin-4-one]	69 % activation	5.31

— US20260138976A1 (Hoffmann-La Roche Inc., priority 2022, published 2026)
